# Measured values: US10925856B2, “Methods and compositions involving bucindolol for the treatment of atrial fibrillation” (priority 2018, dated 2021)
# Test system: NT-proBNP
# Assay: Plasma NT-proBNP (electrochemiluminescence immunoassay)
# [1] = Europe excluding Hungary (n = 48)
# [2] = change from baseline, Canada (n = 59)
# [3] = change from baseline, Entire Cohort (n = 267)
# [4] = change from baseline, Europe excluding Hungary (n = 48)
# [5] = change from baseline, Hungary (n = 33)
# [6] = change from baseline, U.S. (n = 127)
# [7] = change from baseline, entire cohort
# [8] = end of the 24-week follow-up period, U.S.
structure (smiles),measurement,setting,value
"COCCc1ccc(OCC(O)CNC(C)C)cc1 (centres unmarked) [metoprolol, metoprolol succinate, reference compound]","NT-proBNP, Week 4 Mean",Canada,1715 pg/mL
same,"NT-proBNP, Week 4 Median",Canada,1067 pg/mL
same,"NT-proBNP, ΔWeek 4 Mean ± SEM",Canada,-91 pg/mL
same,"NT-proBNP, ΔWeek 4 Median",Canada,-101 pg/mL
same,"NT-proBNP, Baseline Mean ± SD",Canada (n = 59),1646 ± 2303 pg/mL
same,"NT-proBNP, Baseline Median",Canada (n = 59),913 pg/mL
same,"NT-proBNP, Week 12 Mean ± SD",Canada (n = 59),1338 ± 1504 pg/mL
same,"NT-proBNP, Week 12 Median",Canada (n = 59),845 pg/mL
same,"NT-proBNP, Week 24 Mean ± SD",Canada (n = 59),1382 ± 1974 pg/mL
same,"NT-proBNP, Week 24 Median",Canada (n = 59),623 pg/mL
same,"NT-proBNP, Week 4 Mean",Entire Cohort,1212 pg/mL
same,"NT-proBNP, Week 4 Median",Entire Cohort,792 pg/mL
same,"NT-proBNP, ΔWeek 4 Mean ± SEM",Entire Cohort,-50 pg/mL
same,"NT-proBNP, ΔWeek 4 Median",Entire Cohort,-35 pg/mL
same,"NT-proBNP, Baseline Median",Entire Cohort (n = 267),861 pg/mL
same,"NT-proBNP, Week 12 Mean ± SD",Entire Cohort (n = 267),1134 ± 1197 pg/mL
same,"NT-proBNP, Week 12 Median",Entire Cohort (n = 267),652 pg/mL
same,"NT-proBNP, Week 24 Mean ± SD",Entire Cohort (n = 267),1334 ± 1732 pg/mL
same,"NT-proBNP, Week 24 Median",Entire Cohort (n = 267),661 pg/mL
same,"NT-proBNP, Week 4 Mean",Europe excluding Hungary,820 pg/mL
same,"NT-proBNP, Week 4 Median",Europe excluding Hungary,433 pg/mL
same,"NT-proBNP, ΔWeek 4 Mean ± SEM",Europe excluding Hungary,-117 pg/mL
same,"NT-proBNP, ΔWeek 4 Median",Europe excluding Hungary,-93 pg/mL
same,"NT-proBNP, Baseline Mean ± SD",[1],883 ± 880 pg/mL
same,"NT-proBNP, Baseline Median",[1],521 pg/mL
same,"NT-proBNP, Week 12 Mean ± SD",[1],867 ± 885 pg/mL
same,"NT-proBNP, Week 12 Median",[1],526 pg/mL
same,"NT-proBNP, Week 24 Mean ± SD",[1],1108 ± 962 pg/mL
same,"NT-proBNP, Week 4 Mean",Hungary,812 pg/mL
same,"NT-proBNP, Week 4 Median",Hungary,803 pg/mL
same,"NT-proBNP, ΔWeek 4 Mean ± SEM",Hungary,-11 pg/mL
same,"NT-proBNP, ΔWeek 4 Median",Hungary,-40 pg/mL
same,"NT-proBNP, Baseline Mean ± SD",Hungary (n = 33),781 ± 458 pg/mL
same,"NT-proBNP, Baseline Median",Hungary (n = 33),785 pg/mL
same,"NT-proBNP, Week 12 Mean ± SD",Hungary (n = 33),864 ± 876 pg/mL
same,"NT-proBNP, Week 12 Median",Hungary (n = 33),593 pg/mL
same,"NT-proBNP, Week 24 Mean ± SD",Hungary (n = 33),1150 ± 784 pg/mL
same,"NT-proBNP, Week 24 Median",Hungary (n = 33),1019 pg/mL
same,"NT-proBNP, Week 4 Mean",U.S.,1227 pg/mL
same,"NT-proBNP, Week 4 Median",U.S.,831 pg/mL
same,"NT-proBNP, ΔWeek 4 Mean ± SEM",U.S.,-14 pg/mL
same,"NT-proBNP, ΔWeek 4 Median",U.S.,-27 pg/mL
same,"NT-proBNP, Baseline Mean ± SD",U.S. (n = 127),1499 ± 2033 pg/mL
same,"NT-proBNP, Baseline Median",U.S. (n = 127),982 pg/mL
same,"NT-proBNP, Week 12 Mean ± SD",U.S. (n = 127),1224 ± 1240 pg/mL
same,"NT-proBNP, Week 12 Median",U.S. (n = 127),661 pg/mL
same,"NT-proBNP, Week 24 Mean ± SD",U.S. (n = 127),1374 ± 1839 pg/mL
same,"NT-proBNP, Week 24 Median",U.S. (n = 127),547 pg/mL
same,"NT-proBNP, ΔWeek 12 Mean ± SEM",[2],-482 ± 355 pg/mL
same,"NT-proBNP, ΔWeek 12 Median",[2],-36 pg/mL
same,"NT-proBNP, ΔWeek 24 Mean ± SEM",[2],-489 ± 361 pg/mL
same,"NT-proBNP, ΔWeek 24 Median",[2],-106 pg/mL
same,"NT-proBNP, ΔWeek 12 Mean ± SEM",[3],-135 ± 124 pg/mL
same,"NT-proBNP, ΔWeek 12 Median",[3],-50 pg/mL
same,"NT-proBNP, ΔWeek 24 Median",[3],-100 pg/mL
same,"NT-proBNP, ΔWeek 12 Mean ± SEM",[4],-70 ± 184 pg/mL
same,"NT-proBNP, ΔWeek 12 Median",[4],-20 pg/mL
same,"NT-proBNP, ΔWeek 24 Mean ± SEM",[4],-133 ± 153 pg/mL
same,"NT-proBNP, ΔWeek 24 Median",[4],-101 pg/mL
same,"NT-proBNP, ΔWeek 12 Mean ± SEM",[5],+45 ± 190 pg/ml
same,"NT-proBNP, ΔWeek 12 Median",[5],+75 pg/ml
same,"NT-proBNP, ΔWeek 24 Mean ± SEM",[5],+201 ± 219 pg/ml
same,"NT-proBNP, ΔWeek 24 Median",[5],+150 pg/ml
same,"NT-proBNP, ΔWeek 12 Mean ± SEM",[6],-63 ± 190 pg/mL
same,"NT-proBNP, ΔWeek 12 Median",[6],-99 pg/mL
same,"NT-proBNP, ΔWeek 24 Mean ± SEM",[6],-158 ± 258 pg/mL
same,"NT-proBNP, ΔWeek 24 Median",[6],-135 pg/mL
same,"NT-proBNP, ΔWeek 4 Median",[7],-35 pg/mL
same,NT-proBNP decrease,[8],20%
"CC(C)(Cc1c[nH]c2ccccc12)NCC(O)COc1ccccc1C#N (centres unmarked) [bucindolol, 2-(3-(1-(1H-indol-3-yl)-2-methylpropan-2-ylamino)-2-hydroxypropoxy)benzonitrile]","NT-proBNP, Week 4 Mean",Canada,859 pg/mL
same,"NT-proBNP, Week 4 Median",Canada,499 pg/mL
same,"NT-proBNP, ΔWeek 4 Mean ± SEM",Canada,-455 pg/mL
same,"NT-proBNP, ΔWeek 4 Median",Canada,-184 pg/mL
same,"NT-proBNP, Baseline Mean ± SD",Canada (n = 59),1314 ± 1503 pg/mL
same,"NT-proBNP, Baseline Median",Canada (n = 59),790 pg/mL
same,"NT-proBNP, Week 12 Mean ± SD",Canada (n = 59),674 ± 767 pg/mL
same,"NT-proBNP, Week 12 Median",Canada (n = 59),432 pg/mL
same,"NT-proBNP, Week 24 Mean ± SD",Canada (n = 59),831 ± 961 pg/mL
same,"NT-proBNP, Week 24 Median",Canada (n = 59),425 pg/mL
same,"NT-proBNP, Week 4 Mean",Entire Cohort,1196 pg/mL
same,"NT-proBNP, Week 4 Median",Entire Cohort,613 pg/mL
same,"NT-proBNP, ΔWeek 4 Mean ± SEM",Entire Cohort,-0.4 pg/mL
same,"NT-proBNP, ΔWeek 4 Median",Entire Cohort,-96 pg/mL
same,"NT-proBNP, Baseline Mean ± SD",Entire Cohort (n = 267),1159 ± 1306 pg/mL
same,"NT-proBNP, Baseline Median",Entire Cohort (n = 267),777 pg/mL
same,"NT-proBNP, Week 12 Mean ± SD",Entire Cohort (n = 267),1052 ± 1923 pg/mL
same,"NT-proBNP, Week 12 Median",Entire Cohort (n = 267),470 pg/mL
same,"NT-proBNP, Week 24 Mean ± SD",Entire Cohort (n = 267),1135 ± 1632 pg/mL
same,"NT-proBNP, Week 24 Median",Entire Cohort (n = 267),502 pg/mL
same,"NT-proBNP, Week 4 Mean",Europe excluding Hungary,756 pg/mL
same,"NT-proBNP, Week 4 Median",Europe excluding Hungary,431 pg/mL
same,"NT-proBNP, ΔWeek 4 Mean ± SEM",Europe excluding Hungary,-72 pg/mL
same,"NT-proBNP, ΔWeek 4 Median",Europe excluding Hungary,-108 pg/mL
same,"NT-proBNP, Baseline Mean ± SD",[1],893 ± 849 pg/mL
same,"NT-proBNP, Baseline Median",[1],600 pg/mL
same,"NT-proBNP, Week 12 Mean ± SD",[1],782 pg/mL
same,"NT-proBNP, Week 12 Median",[1],376 pg/mL
same,"NT-proBNP, Week 24 Mean ± SD",[1],1859 pg/mL
same,"NT-proBNP, Week 24 Median",[1],593 pg/mL
same,"NT-proBNP, Week 4 Mean",Hungary,1616 pg/mL
same,"NT-proBNP, Week 4 Median",Hungary,594 pg/mL
same,"NT-proBNP, ΔWeek 4 Mean ± SEM",Hungary,+461 pg/ml
same,"NT-proBNP, ΔWeek 4 Median",Hungary,-47 pg/mL
same,"NT-proBNP, Baseline Mean ± SD",Hungary (n = 33),989 ± 1428 pg/mL
same,"NT-proBNP, Baseline Median",Hungary (n = 33),567 pg/mL
same,"NT-proBNP, Week 12 Mean ± SD",Hungary (n = 33),1095 ± 1929 pg/mL
same,"NT-proBNP, Week 12 Median",Hungary (n = 33),446 pg/mL
same,"NT-proBNP, Week 24 Mean ± SD",Hungary (n = 33),1244 ± 2515 pg/mL
same,"NT-proBNP, Week 24 Median",Hungary (n = 33),244 pg/mL
same,"NT-proBNP, Week 4 Mean",U.S.,1501 pg/mL
same,"NT-proBNP, Week 4 Median",U.S.,796 pg/mL
same,"NT-proBNP, ΔWeek 4 Mean ± SEM",U.S.,+182 pg/ml
same,"NT-proBNP, ΔWeek 4 Median",U.S.,-75 pg/mL
same,"NT-proBNP, Baseline Mean ± SD",U.S. (n = 127),1245 ± 1332 pg/mL
same,"NT-proBNP, Baseline Median",U.S. (n = 127),904 pg/mL
same,"NT-proBNP, Week 12 Mean ± SD",U.S. (n = 127),1383 ± 2538 pg/mL
same,"NT-proBNP, Week 12 Median",U.S. (n = 127),561 pg/mL
same,"NT-proBNP, Week 24 Mean ± SD",U.S. (n = 127),1124 ± 1516 pg/mL
same,"NT-proBNP, Week 24 Median",U.S. (n = 127),653 pg/mL
same,NT-proBNP decrease,"Week 24, Canadian cohort",−39%
same,NT-proBNP decrease relative to that in the metoprolol group,"Week 24, Canadian cohort",~3 fold
same,"NT-proBNP, ΔWeek 12 Mean ± SEM",[2],-602 ± 232 pg/mL
same,"NT-proBNP, ΔWeek 12 Median",[2],-176 pg/mL
same,"NT-proBNP, ΔWeek 24 Mean ± SEM",[2],-442 ± 223 pg/mL
same,"NT-proBNP, ΔWeek 24 Median",[2],-271 pg/mL
same,"NT-proBNP, ΔWeek 12 Mean ± SEM",[3],-108 ± 133 pg/mL
same,"NT-proBNP, ΔWeek 12 Median",[3],-96 pg/mL
same,"NT-proBNP, ΔWeek 24 Mean ± SEM",[3],-92 ± 136 pg/mL
same,"NT-proBNP, ΔWeek 24 Median",[3],-197 pg/mL
same,"NT-proBNP, ΔWeek 12 Mean ± SEM",[4],-101 pg/mL
same,"NT-proBNP, ΔWeek 12 Median",[4],-92 pg/mL
same,"NT-proBNP, ΔWeek 24 Mean ± SEM",[4],+983 pg/ml
same,"NT-proBNP, ΔWeek 24 Median",[4],-48 pg/mL
same,"NT-proBNP, ΔWeek 12 Mean ± SEM",[5],+40 ± 170 pg/ml
same,"NT-proBNP, ΔWeek 12 Median",[5],-96 pg/mL
same,"NT-proBNP, ΔWeek 24 Mean ± SEM",[5],+41 ± 276 pg/ml
same,"NT-proBNP, ΔWeek 24 Median",[5],-176 pg/mL
same,"NT-proBNP, ΔWeek 12 Mean ± SEM",[6],+130 ± 262 pg/ml
same,"NT-proBNP, ΔWeek 12 Median",[6],-81 pg/mL
same,"NT-proBNP, ΔWeek 24 Mean ± SEM",[6],-163 ± 161 pg/mL
same,"NT-proBNP, ΔWeek 24 Median",[6],-315 pg/mL
same,"NT-proBNP, ΔWeek 4 Median",[7],-96 pg/mL
same,NT-proBNP decrease,[8],33%
same,NT-proBNP decrease from baseline,"week 4, entire cohort",96 pg/mL
same,NT-proBNP decrease from baseline,"week 12, entire cohort",96 pg/mL
same,NT-proBNP decrease relative to baseline,"week 24, entire cohort",197 pg/mL
